Columns and labels:
Phyllotreta striolata = assay: Canola foliar treatment, striped flea beetle mortality; format: in vivo
Description: 1. Canola-Striped Flea Beetle, Phyllotreta striolata:
Canola foliar treatment: Before application, construction paper was placed at the base of each plant to catch spray solution and therefore preventing beetle contact with contaminated soil and pots (allowing only the plants to be treated). Canola seedlings were treated at the first true leaf stage in a spray chamber at 300 L/ha with a three nozzle (TX-6) flat boom. Plants were allowed to dry, paper was removed, and plants were transferred to a greenhouse to hold over night. At infest, three plants (replicates) per treatment were placed into a bucket. Twenty adult flea beetles (mix sex) were aspirated into a vial and placed in the center of the bucket. The container was closed and placed into a Percival at 25 C 50% RH. Mortality evaluation was made on 6 DAI.

Meligethes aeneus = assay: Oilseed rape inflorescence dip (foliar application), pollen beetle control; format: in vivo
Description: 2. Oilseed Rape—Pollen Beetle, Meligethes aeneus:
Foliar application: Test units consisted of a plastic cup with a hole in the bottom and a glass vial below that hole, containing irrigation water. Oil seed rape inflorescences were dipped into the treatment solutions and after drying placed inside the plastic cups. Each cup was sealed with a perforated, transparent lid. Ten adult pollen beetles, field collected, were added to each cup. Each treatment was replicated three times. Pollen beetle survival was assessed 3 days after application.

C[n+]1c([O-])c(-c2ccccc2)c(=O)n2c1SC[C@@H]2c1cnc(Cl)s1 [Compound I-R-1]
mortality at 600 ppm (Phyllotreta striolata; Phyllotreta striolata, in Brassica napus, 600 ppm, foliar spray 300 L/ha on canola seedlings at first true leaf, adult flea beetles, evaluation 6 DAI): ≥ 65%
flea beetle control (summary in words) (Phyllotreta striolata; canola foliar treatment, Table 1): good flea beetle control
Percent control (%) A03 (Meligethes aeneus; 72 g ai/ha, oil seed rape inflorescences dipped, field collected adult pollen beetles, assessed 3 days after application): 47.8 a %
efficacy against the adults of pollen beetle (summary in words) (Meligethes aeneus; foliar application): good efficacy

— patent US20220039386A1, “METHOD FOR CONTROLLING PESTS OF RAPESEED PLANTS” (BASF SE, priority 2018, published 2022)
